Source: patent US20130252983A1, “ACTIVATING PHOSPHORYLATION SITE ON GLUTAMINASE C” (CORNELL UNIVERSITY, priority 2010, published 2013)

Key:
[1] = tested on: NIH 3T3 cells stably expressing Cdc42(F28L), Rac(F28L), RhoC(F30L); assay: Growth to high density or in low serum of cells expressing activated Rho GTPase mutants; type: cell-based, mouse; conditions: 10 μM
Experimental: (§1) FIGS. 2A-G illustrate effects of 968 on the transforming activity of constitutively active Rho GTPases and human breast cancer cells. […] Cells were scored after 14 days and plotted as the percentage of the total number of colonies greater than 50 μm in diameter. Data represent the average of 3 experiments (±s.d.). […] Data represent the average of 3 experiments (±s.d.). […] Data represent the average of 3 experiments (±s.d.). […] After 24 hours at 37° C., the migratory cells were fixed, stained with GIEMSA, and counted. Data represent the average of 3 experiments (±s.d.). […] Data represent the average of 3 experiments (±s.d.). […] Data represent the average of 3 experiments (±s.d.). […] Data represent the average of 3 experiments (±s.d.).

HMECs = assay: Growth of normal human mammary epithelial cells; type: cell-based; conditions: 10 μM, MEGM complete medium, 6 days
MDA-MB231 cells = assay: Growth to high density and in low serum, MDA-MB231; type: cell-based, human; conditions: 10 μM
Experimental: as §1

SKBR3 cells = assay: Growth to high density and in low serum, SKBR3; type: cell-based, human; conditions: 10 μM
Experimental: as §1
100%=620 moles of glutamine hydrolyzed per minute per mole of enzyme. Data represent the average of 3 experiments (±s.d.). […] Following precipitation of the beads and re-suspension, the samples were analyzed by Western blotting with anti-V5 antibody. […] Data represent the average of 3 experiments (±s.d.). […] Data represent the average of 3 experiments (±s.d.). […] Data represent the average of 3 experiments (±s.d.). FIG. 3E NIH 3T3 cells transiently expressing Dbl were assayed for focus formation in the presence of 10 μM 968 alone or together with 7 mM dimethyl α-ketoglutarate. […] 100%=680 nM glutamine hydrolyzed per minute per 10^5 cells. […]

[2] = tested on: GACΔC (C-terminal truncation mutant of GAC); assay: Glutaminase activity of immunoprecipitated GACΔC from treated Dbl-transformed cells; type: cell-based, mouse; conditions: 10 μM, 48 hours
[3] = tested on: GA activity of MDA-MB231 cells; assay: GA activity in mitochondrial fractions of treated MDA-MB231 cells; type: cell-based, human; conditions: 10 μM, 48 hours
Experimental: 100%=620 moles of glutamine hydrolyzed per minute per mole of enzyme. Data represent the average of 3 experiments (±s.d.). […] Following precipitation of the beads and re-suspension, the samples were analyzed by Western blotting with anti-V5 antibody. […] Data represent the average of 3 experiments (±s.d.). […] Data represent the average of 3 experiments (±s.d.). […] Data represent the average of 3 experiments (±s.d.). FIG. 3E NIH 3T3 cells transiently expressing Dbl were assayed for focus formation in the presence of 10 μM 968 alone or together with 7 mM dimethyl α-ketoglutarate. […] 100%=680 nM glutamine hydrolyzed per minute per 10^5 cells. Data are the average of 3 experiments (±s.d.). […] 100%=750 nM glutamine hydrolyzed per minute per 10^5 cells. Data represent the average of 3 experiments (±s.d.).
Mitochondrial preparations were obtained using the mitochondria isolation kit from QIAGEN (Cat #37612). A suspension containing 2×10^7 cells was transferred into a 50 ml conical tube and centrifuged at 500×g for 10 minutes at 4° C. The pellets were resuspended in 2 ml of ice-cold lysis buffer (supplied by QIAGEN) and incubated for 10 minutes at 4° C. using an end-over-end shaker. […]

[4] = tested on: NIH 3T3 cells expressing oncogenic Dbl; assay: Dbl-induced cellular transformation (focus formation, growth in low serum, soft agar); type: cell-based, mouse
Experimental: FIGS. 1A-E illustrate that the small molecule 968 inhibits cellular transformation. […] Cells were fixed and stained with crystal violet for counting of foci. Right: 968 was serially diluted (10, 5, 2.5, and 1.25 μM) and evaluated for its ability to inhibit focus formation. […] After 6 days, the cells were counted. 100% represents the number of Dbl-transformed cells counted in the absence of 968 (27.5×10^4 cells). Data represent the average of 3 experiments (±s.d.). […] At the indicated times, the cells were counted. Data represent the average of 3 experiments (±s.d.).
as §1
FIGS. 5A-C illustrate comparative abilities of 968 and other benzo[a]phenanthridinones to inhibit the transforming activity of oncogenic Dbl and H-Ras. […] Histograms show the relative levels of Dbl-induced focus formation for the different treatments, compared to Dbl-induced focus formation measured in the presence of DMSO (i.e. solvent control). Data represent the average of 3 experiments (mean±s.d.). […] Histograms show the relative levels of Ras(G12V)-induced focus formation measured for the different treatments, compared to Ras(G12V)-induced focus formation measured in the presence of DMSO (solvent control). Data represent the average of 3 experiments (mean±s.d.). FIG. 5C NIH 3T3 cells stably expressing H-Ras(G12V) that were cultured in DMEM supplemented with 1% calf serum, with the indicated amounts of 968. After 6 days, cells are trypsinized and counted. 100% represents the number of cells counted in the absence of 968, i.e. 26×10^4 cells. Data represent the average of 3 experiments (mean±s.d.).

In the case of CN(C)c1ccc(C2Nc3ccc4ccccc4c3C3=C2C(=O)CC(C)(C)C3)cc1Br (stereo not drawn) [Compound 968, 5-[3-bromo-4-(dimethylamino)phenyl]-2,2-dimethyl-2,3,5,6-tetrahydrobenzo[a]], the “growth under low serum conditions” value ([1]; 1% calf serum) is reported as “blocking their ability”, the “growth to high density” value ([1]; 10% calf serum, 6 days) is reported as “blocking their ability” and the “effect on growth of HMECs” value (HMECs) is reported as “little effect”. The “growth in low serum” value (MDA-MB231 cells; 1% fetal bovine serum) was “inhibits their growth”, the “growth to high density” value (MDA-MB231 cells; 10% fetal bovine serum, 6 days) was “inhibits their growth” and the “growth in low serum” value (SKBR3 cells; 1% fetal bovine serum) was “inhibits their growth”. The “growth to high density” value (SKBR3 cells; 10% fetal bovine serum, 6 days) was “inhibits their growth”, the “basal activity of GACΔC” value [2] was “not further reduced” and the “basal GA activity” value [3] was “sensitive to 968”. For the same compound, the “Dbl-induced colony formation in soft agar” value ([4]; 10 μM) was “blocked”, the “potency against Dbl-induced transformation compared to oncogenic H-Ras” value ([4]; focus formation in NIH 3T3 cells or growth in low serum) was “more potent inhibitor of Dbl-induced transformation” and the “concentration at which active in blocking Dbl-induced transformation” value ([4]; focus-forming assays or growth in low serum) was 1 to 10 µM.
